Assay results taken from patent publication US20230312578A1, “6H-INDOLO[2,3-B]QUINOXALINE DERIVATIVES USEFUL IN THERAPY” (Vironova Medical AB, priority 2020, published 2023).
Where two headings read alike, the source gives them in different places.

Legend:
Assay type in all cases: cell-based
[1] = Human tumor cell line growth assay (SRB); conditions: human, HT29 cells (colon), HT29, 48 h, read-out: LC50
HT29 = experiment: Human tumor cell line growth assay (SRB); conditions: Homo sapiens, HT-29; Colon, HT29, 48 h
PC-3 = experiment: Human tumor cell line growth assay (SRB); conditions: Prostate, PC-3, 48 h
[2] = Human tumor cell line growth assay (SRB); conditions: human, SK-MEL-5 cells (melanoma), SK-MEL-5, 48 h
SK-MEL-5 = experiment: Human tumor cell line growth assay (SRB); conditions: Homo sapiens; Melanoma, SK-MEL-5, 48 h
MDA-MB-468 = experiment: Human tumor cell line growth assay (SRB); conditions: Breast, MDA-MB-468, 48 h
[3] = Human tumor cell line growth assay (SRB); conditions: human, M14 cells (melanoma), M14, 48 h, read-out: LC50
M14 = experiment: Human tumor cell line growth assay (SRB); conditions: Homo sapiens; Melanoma, M14, 48 h
[4] = Human tumor cell line growth assay (SRB); conditions: human, MOLT-4 cells (leukemia), MOLT-4, 48 h, read-out: LC50
MOLT-4 = experiment: Human tumor cell line growth assay (SRB); conditions: Homo sapiens; Leukemia, MOLT-4, 48 h
[5] = Human tumor cell line growth assay (SRB); conditions: human, HCT-15 cells (colon), HCT-15, 48 h
HCT-15 = experiment: Human tumor cell line growth assay (SRB); conditions: Homo sapiens; Colon, HCT-15, 48 h
[6] = Human tumor cell line growth assay (SRB); conditions: human, OVCAR-4 cells (ovarian), OVCAR-4, 48 h, read-out: LC50
OVCAR-4 = experiment: Human tumor cell line growth assay (SRB); conditions: Homo sapiens; Ovarian, OVCAR-4, 48 h
[7] = Human tumor cell line growth assay (SRB); conditions: human, HCC-2998 cells (colon), HCC-2998, 48 h, read-out: LC50
[8] = Human tumor cell line growth assay (SRB); conditions: human, SK-MEL-2 cells (melanoma), SK-MEL-2, 48 h, read-out: LC50
SK-MEL-2 = experiment: Human tumor cell line growth assay (SRB); conditions: Homo sapiens; Melanoma, SK-MEL-2, 48 h
CAKI-1 = experiment: Human tumor cell line growth assay (SRB); conditions: Renal, CAKI-1, 48 h
[9] = Human tumor cell line growth assay (SRB); conditions: human, NCI-H322M cells (NSCLC), read-out: LC50
NCI-H322M = experiment: Human tumor cell line growth assay (SRB); conditions: Homo sapiens, NSCLC, 48 h
[10] = Human tumor cell line growth assay (SRB); conditions: human, NCI-H226 cells (NSCLC), NCI-H226, 48 h, read-out: LC50
NCI-H226 = experiment: Human tumor cell line growth assay (SRB); conditions: Homo sapiens; NSCLC, NCI-H226, 48 h
COLO 205 = experiment: Human tumor cell line growth assay (SRB); conditions: Homo sapiens; Colon, COLO 205, 48 h
[11] = Human tumor cell line growth assay (SRB); conditions: human, COLO 205 cells (colon), COLO 205, 48 h, read-out: LC50
[12] = Human tumor cell line growth assay (SRB); conditions: human, UACC-62 cells (melanoma), UACC-62, 48 h, read-out: LC50
UACC-62 = experiment: Human tumor cell line growth assay (SRB); conditions: Homo sapiens; Melanoma, UACC-62, 48 h
[13] = Human tumor cell line growth assay (SRB); conditions: human, MDA-MB-435 cells (melanoma), MDA-MB-435, 48 h, read-out: LC50
MDA-MB-435 = experiment: Human tumor cell line growth assay (SRB); conditions: Homo sapiens; Melanoma, MDA-MB-435, 48 h
[14] = Human tumor cell line growth assay (SRB); conditions: human, HCT-116 cells (colon), HCT-116, 48 h, read-out: LC50
HCT-116 = experiment: Human tumor cell line growth assay (SRB); conditions: Homo sapiens; Colon, HCT-116, 48 h
ACHN = experiment: Human tumor cell line growth assay (SRB); conditions: Renal, 48 h
Human tumor cell lines = experiment: Human tumor cell line growth assay (SRB), summary over the panel; conditions: overall over the panel
SN12C = experiment: Human tumor cell line growth assay (SRB); conditions: Renal, 48 h
[15] = Human tumor cell line growth assay (SRB); conditions: human, SNB-75 cells (CNS), SNB-75, 48 h
SNB-75 = experiment: Human tumor cell line growth assay (SRB); conditions: Homo sapiens; CNS, SNB-75, 48 h
MDA-MB-231/ATCC = experiment: Human tumor cell line growth assay (SRB); conditions: Breast, 48 h
T-47D = experiment: Human tumor cell line growth assay (SRB); conditions: T47D, Breast, 48 h
[16] = read-out: LC50 (the source's name)

Cc1cc2nc3c4cc([N+](=O)[O-])ccc4n(CCN(C)C)c3nc2cc1C [JBA-185, 2-(2,3-dimethyl-9-nitro-6H-indolo[2,3-b]quinoxalin-6-yl)-N,N-dimethylethanamine]
CC50 at 48 h [1]: > 100000 nM
GI50 (HT29): 375 nM
GI50 (PC-3): 187 nM
CC50 (PC-3; [16]): > 100000 nM
LC50 (concentration killing 50% of tumour cells) at 48 h [2]: 4770 nM
GI50 (SK-MEL-5): 1040 nM
GI50 (MDA-MB-468): 374 nM
CC50 (MDA-MB-468; [16]): 5300 nM
CC50 at 48 h [3]: 7280 nM
GI50 (M14): 499 nM
CC50 at 48 h [4]: > 100000 nM
GI50 (MOLT-4): 368 nM
LC50 (concentration killing 50% of cells) at 48 h [5]: > 100000 nM
GI50 (HCT-15): 349 nM
CC50 at 48 h [6]: > 100000 nM
GI50 (OVCAR-4): 452 nM
CC50 at 48 h [7]: 6530 nM
CC50 at 48 h [8]: 9020 nM
GI50 (SK-MEL-2): 1040 nM
GI50 (CAKI-1): 251 nM
CC50 (CAKI-1; [16]): 7480 nM
CC50 at 48 h [9]: > 100000 nM
GI50 (NCI-H322M): 467 nM
CC50 at 48 h [10]: > 100000 nM
GI50 (NCI-H226): 521 nM
GI50 (COLO 205): 360 nM
CC50 at 48 h [11]: > 100000 nM
CC50 at 48 h [12]: 5780 nM
GI50 (UACC-62): 514 nM
CC50 at 48 h [13]: 4500 nM
GI50 (MDA-MB-435): 541 nM
CC50 at 48 h [14]: 94200 nM
GI50 (HCT-116): 355 nM
GI50 (ACHN): 316 nM
CC50 (ACHN; [16]): 2460 nM
cytotoxicity, comparison in words (Human tumor cell lines): less cytotoxic than B220
growth inhibition (GI50), comparison in words (Human tumor cell lines): lower GI50 compared to B220
GI50 (SN12C): 479 nM
CC50 (SN12C; [16]): > 100000 nM
LC50 (concentration killing 50% of cells) at 48 h [15]: 5450 nM
GI50 (SNB-75): 447 nM
GI50 (MDA-MB-231/ATCC): 495 nM
CC50 (MDA-MB-231/ATCC; [16]): > 100000 nM
GI50 (T-47D): 499 nM
CC50 (T-47D; [16]): > 100000 nM
